According to the supplement of paper PMC11451515:

Assays:
Details in all cases: 48 h
SEM cells [1] = test: AUC of viability dose-response curve (% viability x log10 dose units); higher = less sensitive
Procedure, shortened: (§1)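 Medium-adapted leukemia cells in 1536-well plates, at 500 or 1000 cells/well, were incubated for 48 h at 37°C with library compounds in DMSO at 11 threefold doses from 47 μM to 0.79 nM. CellTiter-Glo One luminescence normalised per plate to DMSO and cell-free wells was fitted with a four-parameter log-logistic model over log10 doses. Area under the curve was integrated from this fit by trapezoidal rule, with curves beyond full viability scaled and failed quality-control curves removed.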

P12-Ichikawa [2] = test: as above
Procedure, shortened: as §1

NOMO1 [3] = test: as above
Procedure, shortened: as §1

SEM cells [4] = test: cell viability relative to DMSO control; higher = less cytotoxic
Procedure, shortened: (§2)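 Cells were incubated for 48 h at 37°C before CellTiter-Glo One luminescence was read. The cells were NOMO1 or SEM (500 cells/well) or P12-Ichikawa (1000 cells/well) leukemia cells, adapted for at least four passages in each medium and seeded in 1536-well plates (5 μl). Dosing used library compounds in DMSO applied by pin over 11 threefold points, 47 μM to 0.79 nM. Viability is the per-plate percentage of DMSO wells, with cell-free wells as background.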

P12-Ichikawa [5] = test: as above
Procedure, shortened: as §2

NOMO1 [6] = test: as above
Procedure, shortened: as §2

CC[C@H](CO)Nc1nc(NCc2ccccc2)c2ncn(C(C)C)c2n1
AUC of viability dose-response curve
Details | NOMO1 [3] | P12-Ichikawa [2] | SEM cells [1]
HPLM + 10% dialyzed FBS | 432 | 432 | 438
RPMI 5 mM glucose + 10% FBS | 405 | 428 | 467
RPMI 5 mM glucose + 10% dialyzed FBS | 427 | 428 | 440

cell viability [%]
Details | NOMO1 [6] | P12-Ichikawa [5] | SEM cells [4]
HPLM + 10% dialyzed FBS, 0.000781 µM | 98.6 | 85.4 | 89.9
HPLM + 10% dialyzed FBS, 0.00234 µM | 95.1 | 93.9 | 96.2
HPLM + 10% dialyzed FBS, 0.00702 µM | 98.5 | 95.1 | 95.3
HPLM + 10% dialyzed FBS, 0.0211 µM | 99.4 | 91.7 | 86.9
HPLM + 10% dialyzed FBS, 0.0632 µM | 89.8 | 94.8 | 93.7
HPLM + 10% dialyzed FBS, 0.19 µM | 88 | 95.1 | 96.8
HPLM + 10% dialyzed FBS, 0.569 µM | 89.4 | 93.1 | 83.7
HPLM + 10% dialyzed FBS, 1.71 µM | 82.9 | 86.4 | 99.8
HPLM + 10% dialyzed FBS, 5.12 µM | 85.7 | 91.6 | 94
HPLM + 10% dialyzed FBS, 15.4 µM | 96.4 | 85.2 | 98.1
HPLM + 10% dialyzed FBS, 46.1 µM | 54.2 | 79.5 | 58.7
RPMI 5 mM glucose + 10% FBS, 0.000781 µM | 82.5 | 91.2 | 114
RPMI 5 mM glucose + 10% FBS, 0.00234 µM | 93.9 | 93.1 | 97.4
RPMI 5 mM glucose + 10% FBS, 0.00702 µM | 93.9 | 93.2 | 128
RPMI 5 mM glucose + 10% FBS, 0.0211 µM | 83.7 | 92.9 | 111
RPMI 5 mM glucose + 10% FBS, 0.0632 µM | 84.3 | 98.1 | 112
RPMI 5 mM glucose + 10% FBS, 0.19 µM | 88.3 | 95.2 | 126
RPMI 5 mM glucose + 10% FBS, 0.569 µM | 87.4 | 95.9 | 126
RPMI 5 mM glucose + 10% FBS, 1.71 µM | 79.5 | 82.8 | 99.9
RPMI 5 mM glucose + 10% FBS, 5.12 µM | 84.2 | 86.4 | 108
RPMI 5 mM glucose + 10% FBS, 15.4 µM | 77 | 77.6 | 120
RPMI 5 mM glucose + 10% FBS, 46.1 µM | 76.6 | 78.2 | 63.6
RPMI 5 mM glucose + 10% dialyzed FBS, 0.000781 µM | 96.7 | 91.2 | 102
RPMI 5 mM glucose + 10% dialyzed FBS, 0.00234 µM | 96.3 | 94.4 | 102
RPMI 5 mM glucose + 10% dialyzed FBS, 0.00702 µM | 85.2 | 95.5 | 88.6
RPMI 5 mM glucose + 10% dialyzed FBS, 0.0211 µM | 90.9 | 83.9 | 88.2
RPMI 5 mM glucose + 10% dialyzed FBS, 0.0632 µM | 94.1 | 89.5 | 90.8
RPMI 5 mM glucose + 10% dialyzed FBS, 0.19 µM | 86.2 | 94.3 | 95.6
RPMI 5 mM glucose + 10% dialyzed FBS, 0.569 µM | 95.2 | 92 | 98
RPMI 5 mM glucose + 10% dialyzed FBS, 1.71 µM | 90.1 | 88.7 | 97
RPMI 5 mM glucose + 10% dialyzed FBS, 5.12 µM | 94.2 | 87.3 | 102
RPMI 5 mM glucose + 10% dialyzed FBS, 15.4 µM | 77.3 | 86.6 | 88.1
RPMI 5 mM glucose + 10% dialyzed FBS, 46.1 µM | 70.3 | 82 | 35.3

CC(C)CC(=O)Nc1n[nH]c2c1CN(C(=O)C1CCN(C)CC1)C2(C)C
AUC of viability dose-response curve
Details | NOMO1 [3] | P12-Ichikawa [2] | SEM cells [1]
HPLM + 10% dialyzed FBS | 331 | 311 | 320
RPMI 5 mM glucose + 10% FBS | 370 | 351 | 338
RPMI 5 mM glucose + 10% dialyzed FBS | 325 | 345 | 338

NOMO1 [6], HPLM + 10% dialyzed FBS
Details | cell viability [%]
0.000781 µM | 112
0.00234 µM | 154
0.00702 µM | 113
0.0211 µM | 131
0.0632 µM | 85.3
0.19 µM | 94.5
0.569 µM | 103
1.71 µM | 61.4
5.12 µM | 71.1
15.4 µM | 18.5
46.1 µM | 3.76

Nc1cc(N2CCCCC2)nc(N)[n+]1[O-]
AUC of viability dose-response curve
Details | NOMO1 [3] | P12-Ichikawa [2] | SEM cells [1]
HPLM + 10% dialyzed FBS | 451 | 469 | 451
RPMI 5 mM glucose + 10% FBS | 461 | 468 | 451
RPMI 5 mM glucose + 10% dialyzed FBS | 465 | 475 | 455

cell viability [%]
Details | HPLM + 10% dialyzed FBS | RPMI 5 mM glucose + 10% FBS | RPMI 5 mM glucose + 10% dialyzed FBS
P12-Ichikawa [5], 0.000781 µM | 114 | 125 | 113
P12-Ichikawa [5], 0.00234 µM | 125 | 128 | 124
P12-Ichikawa [5], 0.00702 µM | 122 | 121 | 111
P12-Ichikawa [5], 0.0211 µM | 118 | 134 | 125
P12-Ichikawa [5], 0.0632 µM | 120 | 127 | 121
P12-Ichikawa [5], 0.19 µM | 127 | 123 | 114
P12-Ichikawa [5], 0.569 µM | 131 | 131 | 125
P12-Ichikawa [5], 1.71 µM | 125 | 127 | 129
P12-Ichikawa [5], 5.12 µM | 122 | 131 | 121
P12-Ichikawa [5], 15.4 µM | 119 | 134 | 113
P12-Ichikawa [5], 46.1 µM | 122 | 127 | 117
SEM cells [4], 0.000781 µM | 98.9 | 100 | 115
SEM cells [4], 0.00234 µM | 122 | 125 | 132
SEM cells [4], 0.00702 µM | 115 | 108 | 114
SEM cells [4], 0.0211 µM | 112 | 110 | 116
SEM cells [4], 0.0632 µM | 124 | 106 | 120
SEM cells [4], 0.19 µM | 120 | 116 | 129
SEM cells [4], 0.569 µM | 121 | 121 | 108
SEM cells [4], 1.71 µM | 75.6 | 78.9 | 79.8
SEM cells [4], 5.12 µM | 124 | 122 | 135
SEM cells [4], 15.4 µM | 61.5 | 58.2 | 83.9
SEM cells [4], 46.1 µM | 127 | 120 | 133

O=C(O)c1cccnc1
AUC of viability dose-response curve
Details | NOMO1 [3] | P12-Ichikawa [2] | SEM cells [1]
HPLM + 10% dialyzed FBS | 369 | 408 | 330
RPMI 5 mM glucose + 10% FBS | 402 | 426 | 360
RPMI 5 mM glucose + 10% dialyzed FBS | 385 | 403 | 356

cell viability [%]
Details | NOMO1 [6] | P12-Ichikawa [5] | SEM cells [4]
HPLM + 10% dialyzed FBS, 0.000781 µM | 121 | 107 | 111
HPLM + 10% dialyzed FBS, 0.00234 µM | 114 | 107 | 117
HPLM + 10% dialyzed FBS, 0.00702 µM | 130 | 115 | 109
HPLM + 10% dialyzed FBS, 0.0211 µM | 118 | 114 | 118
HPLM + 10% dialyzed FBS, 0.0632 µM | 115 | 106 | 105
HPLM + 10% dialyzed FBS, 0.19 µM | 123 | 107 | 106
HPLM + 10% dialyzed FBS, 0.569 µM | 107 | 106 | 98.2
HPLM + 10% dialyzed FBS, 1.71 µM | 85.2 | 96.1 | 37.5
HPLM + 10% dialyzed FBS, 5.12 µM | 49.4 | 68.9 | 14.4
HPLM + 10% dialyzed FBS, 15.4 µM | 27.4 | 47.1 | 9.12
HPLM + 10% dialyzed FBS, 46.1 µM | 13.2 | 35.8 | 6.43
RPMI 5 mM glucose + 10% FBS, 0.000781 µM | 121 | 113 | –
RPMI 5 mM glucose + 10% FBS, 0.00234 µM | 123 | 112 | –
RPMI 5 mM glucose + 10% FBS, 0.00702 µM | 121 | 126 | –
RPMI 5 mM glucose + 10% FBS, 0.0211 µM | 102 | 113 | –
RPMI 5 mM glucose + 10% FBS, 0.0632 µM | 124 | 118 | –
RPMI 5 mM glucose + 10% FBS, 0.19 µM | 116 | 119 | –
RPMI 5 mM glucose + 10% FBS, 0.569 µM | 112 | 117 | –
RPMI 5 mM glucose + 10% FBS, 1.71 µM | 101 | 110 | –
RPMI 5 mM glucose + 10% FBS, 5.12 µM | 85 | 99.7 | –
RPMI 5 mM glucose + 10% FBS, 15.4 µM | 23.7 | 55.8 | –
RPMI 5 mM glucose + 10% FBS, 46.1 µM | 14.4 | 30.9 | –
RPMI 5 mM glucose + 10% dialyzed FBS, 0.000781 µM | 116 | 110 | –
RPMI 5 mM glucose + 10% dialyzed FBS, 0.00234 µM | 117 | 112 | –
RPMI 5 mM glucose + 10% dialyzed FBS, 0.00702 µM | 116 | 106 | –
RPMI 5 mM glucose + 10% dialyzed FBS, 0.0211 µM | 117 | 108 | –
RPMI 5 mM glucose + 10% dialyzed FBS, 0.0632 µM | 118 | 108 | –
RPMI 5 mM glucose + 10% dialyzed FBS, 0.19 µM | 122 | 102 | –
RPMI 5 mM glucose + 10% dialyzed FBS, 0.569 µM | 117 | 105 | –
RPMI 5 mM glucose + 10% dialyzed FBS, 1.71 µM | 98.6 | 98.2 | –
RPMI 5 mM glucose + 10% dialyzed FBS, 5.12 µM | 61.5 | 76.5 | –
RPMI 5 mM glucose + 10% dialyzed FBS, 15.4 µM | 22.1 | 33.4 | –
RPMI 5 mM glucose + 10% dialyzed FBS, 46.1 µM | 10 | 9.03 | –
